Source: US20250034520A1, “INCREASING DEVELOPMENTAL POTENTIAL OF HUMAN PREIMPLANTATION EMBRYOS BY REDUCING GENETIC INSTABILITY, ANEUPLOIDIES AND CHROMOSOMAL MOSAICISM” (THE TRUSTEES OF COLUMBIA UNIVERSITY IN THE CITY OF NEW YORK, priority 2022, published 2025)

Tests used:
[1] = tested on: human zygotes; experiment: DNA damage foci immunostaining in human zygotes/parthenotes; assay type: cell-based
Experimental: (§1) Embryos, mouse and human, were cultured in Global Total (Life-Global) for the duration of the experiments and with added compounds as outlined below. Incubation in RNA polymerase inhibitors triptolide (1 mM) or alpha amanitin (20 mg/ml) was performed from the 2PN stage (day1) to day3 of human development. Incubation in aphidicolin was performed at 2 mM. […] Mirin was used at a concentration of 50 mM. Olaparib was used to inhibit PARP at a concentration of 10 mM. All experiments were conducted during incubation at 37° C. with 5% CO2 and 19-20% O2. Chemical stock solutions were prepared in DMSO at concentrations at least 1000× higher than the final concentration.
Artificial activation of human MII oocytes was performed using two pulses of 2.7 kV/cm at 50 ms using ECFG21 (Nepagene) in fusion buffer consisting of 0.25 M d-sorbitol buffer containing 0.1 mM calcium acetate, 0.5 mM magnesium acetate, 0.5 mM HEPES, and 1 mg ml^−1 fatty-acid-free BSA as previously described (Tachibana et al., 2013). Thereafter, oocytes were incubated for 3.5-4 h in 10 mg/ml puromycin, followed by a wash step and following culture in Global total.
Following the experimental exposures, mouse and human embryos were fixed in 2% paraformaldehyde (PFA) and 0.25% Triton X-100 in PBS for 10 minutes at room temperature, serially washed in phosphate-buffered solution (PBS) at room temperature, then stored in PBS at 4° C. until staining and imaging. Embryos were placed in 10-20 ml droplets of primary antibody solution within plastic tissue culture dishes covered with mineral oil for 1 hour at room temperature, serially washed (×2) in PBS containing 0.01% Triton X-100 to prevent embryos sticking to oil, then transferred to 10-20 ml secondary antibody solution and Hoechst (dilution 1:500) for 30 minutes. Embryos were then serially washed (×2) and placed in 5 ml droplets of PBS with 0.5% serum albumin in uncoated glass bottom dishes (Mattek) covered with embryo culture oil for imaging. The following primary antibodies were used across experiments as described above: Oct-4, γH2AX, RPA32, RPA32 S4/S8, RPA32 S33, 53BP1, RAD51, Centromere, and phospho-CHK1. […] The appropriate secondary antibodies conjugated with Alexa Fluor 488, Alexa Fluor 555, CF 568, or Alexa Fluor 647 were diluted at 1:500-1:1000. Ethynyl deoxyuridine (EdU) labeling of zygotes and embryos was performed using the labeling kit (Thermo Fisher Scientific) as described by the manufacturer. 10 mM EdU was added to culture medium for 1 h at the indicated time points, and cells were harvested and fixed thereafter. 5-ethynyl uridine (EU) labeling was performed by incubating day3 cleavage stage embryos for 4 hours in Global total containing 0.2 mM EU.
Embryos were imaged with confocal microscopy using a Zeiss LSM (LSM 710) at a magnification of 63× and the Zeiss Zen software. Images were obtained using 488-, 543- and 633-nm lasers and bright-field microscopy. The number of confocal sections was adjusted to capture the entire nucleus or the entire embryo according to the experimental design as described above. Cell numbers and staining foci numbers were counted manually. Nuclei were identified by the presence of Hoechst33342. Foci were identified if at least 3× greater intensity than nuclear average, spherical in appearance, and overlapping with Hoechst33342 staining. Inner cell masses were identified by the presence of Oct4 within a blastocyst embryo. Active DNA replication was identified by the presence of EdU. DNA damage was identified by the detection of γH2AX and RPA foci within the nucleus. Mechanisms of DNA repair were identified through the detection of RPA S4/S8, RPA S33, Rad51 and 53BP1 foci within the nucleus.

[2] = tested on: mouse 2-cell embryos; experiment: single-cell sequencing chromosome content analysis, mouse 2-cell embryos; assay type: cell-based
Experimental: as §1
Single cells from blastomeres were collected on the heated stage (Tokai Hit) of an Olympus IX71 inverted microscope equipped with Narishige micromanipulators and a zona pellucida laser (Hamilton-Thorne). Single nuclei were isolated from blastomeres by lysis and dissection of different nuclei using two […] diameter Piezo micropipettes and Holding pipette (Origio). Single embryo cells or nuclei were placed manually in single wells of a 96-well plate containing 9 ml of lysis buffer, prepared as a master mix of 798 ml H2O, 6 ml of 10 mg/mL Proteinase K solution (Sigma-Aldrich), and 96 ml 10× Single Cell Lysis and Fragmentation buffer (Sigma-Aldrich). Single cells/single nuclei were lysed by heating 96-well plates containing single cells/single nuclei at 50° C. for 1 hour, followed by incubation at 99° C. for four minutes using a PCR thermocycler. Single-cell/single-nuclei whole genome amplification (WGA) using degenerate oligo-nucleotide priming PCR (DOP-PCR) was performed using the SEQPLEX Enhanced DNA Amplification Kit (SEQXE, Sigma) according to the manufacturer's instructions. In addition, a modified version of the DOP-PCR protocol that allows inline indexing of WGA DNA was also applied. WGA DNA was subsequently processed for Illumina library sequencing preparation using standard TruSeq indexing methods via the NEBNext Ultra II DNA Library Prep Kit for Illumina (New England Biolabs). NEBNext Multiplex Oligos for Illumina (96 index primers) were used for four amplification cycles. Library DNA was quantified using Qubit dsDNA HS Assay Kit (Invitrogen, Carlsbad, CA, USA) and library size distribution was confirmed using a 2100 Bioanalyzer DNA 1000 Kit (Agilent, Santa Clara, CA, USA). A unimodal curve centered around 300-500 bp was scored as a successful library preparation. Subsequently, 30 mL of each pooled library was sent for sequencing at a concentration of 20 ng/ml. Mutiplex sequencing was performed using Illumina HiSeq 2500 single end indexed run (SR100) while targeting a coverage of approximately 1 million reads per cell/nuclei, sufficient for quantitative genome-wide copy number analysis.
Analysis of DNA sequencing data was performed as previously described (Baslan et al., 2015) with minor modifications as outlined below. Briefly, multiplex sequencing data were demultiplexed according to unique barcodes with reads assigned to their respective single-cell or single-nuclei. Unique reads were aligned to the reference human and mouse genome builds, hg19 and mm9, respectively. Each genome was partitioned into 5000 bins using a previously described algorithm (Varbin) that corrects for genome sequence mappability (Baslan et al., 2012; Navin et al., 2011). Uniquely mapped reads were sorted, indexed and subsequently counted within the partitioned genomic bins. For single-cell copy number inference, read count data were normalized genome-wide followed by CBS segmentation (Olshen et al., 2004) and transformed into integer copy number states using a least-squares fit approach (Baslan et al., 2015).

[3] = human, aphidicolin incubation in G2 phase
[4] = combined aphidicolin exposure and G2 checkpoint inhibition

With `C[C@@]1(CO)[C@H](O)CC[C@@]2(C)[C@H]1CC[C@H]1C[C@@H]3C[C@@]12CC[C@]3(O)CO` [aphidicolin] the “time to formation of foci for γH2AX and RPA32” value ([1]; aphidicolin from 15.5 h post activation) was no more than 6 h, the “RPA32-positive foci per haploid nucleus, average” value ([1]; human, aphidicolin incubation) was 1.8 per haploid nucleus and the “γH2AX foci positive for RPA32” value ([1]; human, aphidicolin incubation) was “Approximately 10%”. For the same molecule, the “mean γH2AX foci” value [1, 3] was 21, the “γH2AX foci, range” value [1, 3] was 0-51 and the “chromosomal abnormalities per cell” value ([2]; aphidicolin-treated) was 0.62 per cell. The blastomeres showing aneuploidy ([2]; aphidicolin-treated, controls 98% normal) was 33%, the aneuploidies per cell ([2]; both aphidicolin and G2 checkpoint inhibitor) was 2.1 per cell and the blastomeres showing aneuploidy ([2]; combination of aphidicolin and G2 checkpoint inhibition) was 64.5%. The “chromosomes with aneuploidies per cell” value [2, 4] was 2 chromosomes per cell and the “euploid mouse 2-cell embryos” value [2, 4] was 35.5%.
